Where a name gives a salt, the structure may show the parent alone.
Legend:
[1] = target: human α2C adrenergic receptor (Homo sapiens, UniProt P18825); assay: Radioligand binding assay, [3H]rauwolscine competition
[2] = target: human α2A adrenergic receptor (Homo sapiens, UniProt P08913); assay: Agonist activity: inhibition of forskolin-stimulated cAMP synthesis
[3] = target: T1, human α2B adrenergic receptor (Homo sapiens, UniProt P18089); assay: Radioligand binding assay, [3H]rauwolscine competition
T1 construct: expressed in transfected cells
T1 sequence (P18089 1-450): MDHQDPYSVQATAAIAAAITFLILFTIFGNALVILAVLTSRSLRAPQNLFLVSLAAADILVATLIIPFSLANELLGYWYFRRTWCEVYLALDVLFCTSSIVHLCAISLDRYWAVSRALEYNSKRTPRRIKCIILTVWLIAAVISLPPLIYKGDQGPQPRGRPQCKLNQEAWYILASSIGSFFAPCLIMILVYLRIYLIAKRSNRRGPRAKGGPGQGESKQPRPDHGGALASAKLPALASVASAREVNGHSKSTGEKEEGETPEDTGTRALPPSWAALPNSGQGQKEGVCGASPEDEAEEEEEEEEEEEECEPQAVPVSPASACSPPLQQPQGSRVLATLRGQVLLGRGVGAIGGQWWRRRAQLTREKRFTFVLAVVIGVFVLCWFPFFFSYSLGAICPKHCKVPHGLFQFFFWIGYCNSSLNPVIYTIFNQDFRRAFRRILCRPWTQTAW

[4] = target: T2, human α2A adrenergic receptor (Homo sapiens, UniProt P08913); assay: as above; set-up: expressed in transfected cells
T2 sequence (P08913 1-465): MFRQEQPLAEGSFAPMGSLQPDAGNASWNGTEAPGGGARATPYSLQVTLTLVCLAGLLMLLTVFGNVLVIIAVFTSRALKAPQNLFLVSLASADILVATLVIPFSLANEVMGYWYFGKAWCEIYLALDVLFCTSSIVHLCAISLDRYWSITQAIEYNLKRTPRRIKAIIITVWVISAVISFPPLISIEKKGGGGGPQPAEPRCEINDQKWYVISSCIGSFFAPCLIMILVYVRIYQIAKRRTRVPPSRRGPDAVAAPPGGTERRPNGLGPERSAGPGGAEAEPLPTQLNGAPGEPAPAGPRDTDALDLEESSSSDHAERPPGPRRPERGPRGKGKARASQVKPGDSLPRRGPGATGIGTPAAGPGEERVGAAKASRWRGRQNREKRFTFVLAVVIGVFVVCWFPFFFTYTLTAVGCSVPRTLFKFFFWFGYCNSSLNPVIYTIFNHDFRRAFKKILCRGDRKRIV

[5] = target: T3, human α2C adrenergic receptor (Homo sapiens, UniProt P18825); assay: as above
T3 construct: The entire coding region of α2C (1383 bp), including 2 bp of 5′ UT and 400 bp of 3′ UT; expressed in transfected cells
T3 sequence (P18825 1-462): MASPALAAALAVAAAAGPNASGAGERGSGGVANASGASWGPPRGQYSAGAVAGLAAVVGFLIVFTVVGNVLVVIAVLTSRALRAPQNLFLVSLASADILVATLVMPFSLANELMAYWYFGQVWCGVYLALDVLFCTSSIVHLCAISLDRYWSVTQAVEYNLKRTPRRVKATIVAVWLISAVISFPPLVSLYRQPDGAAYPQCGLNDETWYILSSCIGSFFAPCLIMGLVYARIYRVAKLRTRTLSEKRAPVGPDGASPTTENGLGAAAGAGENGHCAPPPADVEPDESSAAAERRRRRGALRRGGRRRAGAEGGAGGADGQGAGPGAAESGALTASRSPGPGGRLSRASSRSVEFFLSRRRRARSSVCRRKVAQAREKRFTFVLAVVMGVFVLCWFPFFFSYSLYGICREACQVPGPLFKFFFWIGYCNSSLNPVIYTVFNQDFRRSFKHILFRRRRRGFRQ

[6] = target: T3, human α2C adrenergic receptor; assay: Agonist activity: inhibition of forskolin-stimulated cAMP synthesis; assay type: cell-based
[7] = target: T2, human α2A adrenergic receptor; assay: as above; remark: listed apart in the source
[8] = target: T1, human α2B adrenergic receptor; assay: as above; assay type: cell-based

Row | melting point [°C] | SMILES | also measured
1 | 215 to 218 | Cc1c(NC2=NCCN2)ccc2[nH]ccc12 (as salt: fumarate) | 
2 | 209 to 211 | Brc1cc(NC2=NCCN2)cc2ncsc12 (as salt: fumarate) | 
3 | 203 to 205 | Clc1cc(NC2=NCCN2)cc2ncsc12 (as salt: fumarate) | 
4 | 179 to 181 | Cc1cc(NC2=NCCN2)cc2ncsc12 (as salt: fumarate) | 
5 | 218 to 220 | CCc1cc(NC2=NCCN2)cc2ncsc12 (as salt: fumarate) | 
6 | 261 to 262 | Clc1cc(NC2=NCCN2)cc2cc[nH]c12 (as salt: fumarate) | 
7 | 224 to 226 | Cc1cc(NC2=NCCN2)cc2cc[nH]c12 (as salt: fumarate) | 
8 | 154 to 156 | C=C(C)c1cc(NC2=NCCN2)cc2cc[nH]c12 (as salt: maleate) | 
9 | 254 to 255 | CC(C)c1cc(NC2=NCCN2)cc2cc[nH]c12 (as salt: succinate) | 

Further lines, the molecule ahead of its results:

Row | SMILES | melting point [°C] | also measured
10 | c1nc2ccc(NC3=NCCN3)cc2s1 |  | Ki [1]: 102 nM; EC50 [2]: 417 nM
11 | c1nc2ccc(NC3=NCCS3)cc2s1 |  | Ki [1]: 1070 nM
12 | Cc1c(NC2=NCCN2)ccc2ncsc12 (as salt: fumarate) | 213 to 215 | 
13 | Brc1cc(NC2=NCCN2)cc2cc[nH]c12 (as salt: fumarate) [Example 2, 7-Bromo-5-(2-imidazolin-2-ylamino)indole] | 272 to 273 | 
14 | Cc1cc(NC2=NCCS2)cc2cc[nH]c12 (as salt: fumarate) [Example 8, 7-Methyl-5-(2-thiazolin-2-ylamino)indole] | 200 to 202 | 
15 | c1nc2cc(NC3=NCCN3)ccc2s1 (as salt: fumarate) [Example 13, 5-(2-Imidazolin-2-ylamino)benzothiazole] | 201 to 203 | 
16 | c1nc2ccc(NC3=NCCN3)cc2s1 (as salt: fumarate) [Example 14, 6-(2-Imidazolin-2-ylamino)benzothiazole] | 215 to 216 | 
17 | c1nc2ccc(NC3=NCCS3)cc2s1 (as salt: fumarate) [Example 15, 6-(2-Thiazolin-2-ylamino)benzothiazole] | 181 to 183 | 
18 | Cc1cc(NC2=NCCS2)cc2cc[nH]c12 [Example 8, 7-Methyl-5-(2-thiazolin-2-ylamino)indole] |  | Ki [3]: 4.9 nM; Ki [4]: 0.832 nM; Ki [5]: 24 nM; EC50 ([6]; inhibition of forskolin-stimulated cAMP, stably transfected cells expressing human α2C, read-out: pEC50 Alpha-2 C (converted)): 2.19 nM; I.A (Intrinsic Activity) Alpha-2 C ([6]; maximum activity relative to maximum activity induced by norepinephrine, human α2C): 1.00; EC50 [7]: 13.8 nM; I.A (Intrinsic Activity) Alpha-2 A ([7]; maximum activity relative to maximum activity induced by norepinephrine, human α2A): 0.60; EC50 ([8]; inhibition of forskolin-stimulated cAMP, stably transfected cells expressing human α2B, read-out: pEC50 Alpha-2 B (converted)): 44.7 nM; I.A (Intrinsic Activity) Alpha-2 B ([8]; maximum activity relative to maximum activity induced by norepinephrine, human α2B): 0.80

— patent US6723741B2, “Benzimidazoles and benzothiazoles and uses thereof” (Synaptic Pharmaceutical Corporation, priority 1996, dated 2004)
